Literature values, collected in patent US6713027B2, “Ozonator for sterilizing, decontaminating, disinfecting, and/or sanitizing surgical instruments” (Electroclave, priority 2001, dated 2004).

Test system: pathogenic bacteria and viruses
Details: in water; compared with chlorine

For O=[O+][O-] [O3, ozone], the “rate of eliminating pathogenic bacteria and viruses from water relative to Cl (chlorine)” value is listed as 3,125 times.
